ChEMBL document CHEMBL1201862, “PubChem BioAssay data set” (2004)
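Protocol summary: plate cells (96-well), add compound at 5 concentrations, incubate 48 h, interpolate endpoints linearly. GI50 marks 50% less growth.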 Active and inactive are the calls of the source. No stated cut-off is given here; in the data, active = GI50 up to about 1.1 µM and inactive = higher.

Key:
Assay in all cases: inhibition of tumour cell growth, NCI panel, 48 h
[1] = system: HL-60
[2] = system: HOP-62
[3] = system: LOX IMVI
[4] = system: Malme-3M
[5] = system: NCI-H226
[6] = system: NCI-H23
[7] = system: NCI-H460
[8] = system: RXF 393
[9] = system: SF-268
[10] = system: SN12C
[11] = system: TK-10
[12] = system: SK-OV-3
[13] = system: UACC-62
[14] = system: HOP-92
[15] = system: Hs-578T
[16] = system: MCF7
[17] = system: MDA-MB-231
[18] = system: PC-3

| Structure (SMILES) | GI50 [1] | GI50 [2] | GI50 [3] | GI50 [4] | GI50 [5] | GI50 [6] | GI50 [7] | GI50 [8] | GI50 [9] | GI50 [10] | GI50 [11] | GI50 [12] | GI50 [13] | GI50 [14] | GI50 [15] | GI50 [16] | GI50 [17] | GI50 [18] |
| --- | --- | --- | --- | --- | --- | --- | --- | --- | --- | --- | --- | --- | --- | --- | --- | --- | --- | --- |
| c1ccc(C2[C@@H]3CCCc4ccccc4C3=NN2c2ccccc2)cc1 (stereo not given in full) | 80 µM (inactive) | > 100 µM (inactive) | 40.8 µM (inactive) | > 100 µM (inactive) | > 100 µM (inactive) | 61 µM (inactive) | > 100 µM (inactive) | 92.3 µM (inactive) | > 100 µM (inactive) | > 100 µM (inactive) | > 100 µM (inactive) | – | – | – | – | – | – | – |
| CSC1CC2C(CC1(C)O)C2(C)C (stereo not given) | – | > 100 µM (inactive) | 95.5 µM (inactive) | > 100 µM (inactive) | – | > 100 µM (inactive) | > 100 µM (inactive) | – | > 100 µM (inactive) | > 100 µM (inactive) | > 100 µM (inactive) | > 100 µM (inactive) | > 100 µM (inactive) | – | – | – | – | – |
| O/N=C/[C@H]1COC2(CCCCC2)O1 | – | > 100 µM (inactive) | > 100 µM (inactive) | > 100 µM (inactive) | > 100 µM (inactive) | > 100 µM (inactive) | – | – | > 100 µM (inactive) | > 100 µM (inactive) | > 100 µM (inactive) | > 100 µM (inactive) | > 100 µM (inactive) | 31.6 µM (inactive) | > 100 µM (inactive) | > 100 µM (inactive) | > 100 µM (inactive) | > 100 µM (inactive) |
| Cc1cccc(C)c1NC(=O)C(=O)Cc1nc2ccccc2s1 | > 100 µM (inactive) | > 100 µM (inactive) | > 100 µM (inactive) | > 100 µM (inactive) | > 100 µM (inactive) | > 100 µM (inactive) | > 100 µM (inactive) | 50.9 µM (inactive) | > 100 µM (inactive) | > 100 µM (inactive) | > 100 µM (inactive) | > 100 µM (inactive) | > 100 µM (inactive) | > 100 µM (inactive) | – | – | – | – |
| C=C[C@@H](C)[C@H](NS(=O)(=O)c1ccc(C)cc1)C(=O)OCC | 57 µM (inactive) | > 100 µM (inactive) | 19.7 µM (inactive) | 39.7 µM (inactive) | > 100 µM (inactive) | 39.4 µM (inactive) | 42.2 µM (inactive) | 42.3 µM (inactive) | 32 µM (inactive) | > 100 µM (inactive) | 52.6 µM (inactive) | 36.6 µM (inactive) | 12.8 µM (inactive) | – | 19.7 µM (inactive) | 28.8 µM (inactive) | > 100 µM (inactive) | 32.4 µM (inactive) |
| CO[C@H]1C[C@H](n2cc(C)c(=O)[nH]c2=O)O[C@@H]1CO | > 100 µM (inactive) | > 100 µM (inactive) | > 100 µM (inactive) | > 100 µM (inactive) | > 100 µM (inactive) | > 100 µM (inactive) | > 100 µM (inactive) | > 100 µM (inactive) | > 100 µM (inactive) | > 100 µM (inactive) | > 100 µM (inactive) | > 100 µM (inactive) | > 100 µM (inactive) | – | > 100 µM (inactive) | > 100 µM (inactive) | > 100 µM (inactive) | > 100 µM (inactive) |
| COc1cc([C@@H]2c3cc4c(cc3[C@@H](NC(=O)c3cccc([N+](=O)[O-])c3)C3COC(=O)[C@@H]32)OCO4)cc(OC)c1O (stereo not given in full) | 0.274 µM (active) | 0.0398 µM (active) | 0.295 µM (active) | 0.543 µM (active) | 0.127 µM (active) | 0.189 µM (active) | < 0.01 µM (active) | 2.34 µM (inactive) | 0.552 µM (active) | 0.211 µM (active) | 2.25 µM (inactive) | 0.329 µM (active) | 0.499 µM (active) | 0.63 µM (active) | – | – | – | – |
| COC(=O)CCC1CCc2c(OC)ccc(OC)c2C1=O (stereo not given) | > 100 µM (inactive) | > 100 µM (inactive) | > 100 µM (inactive) | > 100 µM (inactive) | – | > 100 µM (inactive) | > 100 µM (inactive) | > 100 µM (inactive) | > 100 µM (inactive) | > 100 µM (inactive) | > 100 µM (inactive) | > 100 µM (inactive) | > 100 µM (inactive) | – | – | – | – | – |
